Article PMC3527108 (Journal of medicinal chemistry, 2012)
Where two headings read alike, the source gives them in different places.

Tests used:
mu opioid receptor (MOR) = mu opioid receptor (MOR) (Homo sapiens, UniProt P35372); assay: Competitive radioligand binding assay, MOR; conditions: from Ki values
[1] = tested on: opioid-induced constipation in patients; conditions: cited from earlier work; for patients with laxation within 4 hours after the first dose: clinical trial, subcutaneous
Caco-2 cells [2] = assay: Bidirectional transport in Caco-2 cells; format: in vitro ADME; conditions: apical/basolateral, up to 2 h
[3] = low due to significant hepatic first-pass; cited from earlier work
Caco-2 cells [4] = conditions: cited from earlier work
[5] = tested on: GI transit in morphine naive mice; conditions: similar assay, similar dose (about 10 mg/kg); cited from earlier work
[6] = tested on: GI transit in morphine-pelleted mice; conditions: cited from earlier work
[7] = tested on: antinociception (tail flick) in mice; assay: Warm-water tail flick test; format: in vivo; conditions: morphine 10 mg/kg, dose up to 30 mg/kg

Sequence of mu opioid receptor (MOR) (P35372 whole entry, species assumed): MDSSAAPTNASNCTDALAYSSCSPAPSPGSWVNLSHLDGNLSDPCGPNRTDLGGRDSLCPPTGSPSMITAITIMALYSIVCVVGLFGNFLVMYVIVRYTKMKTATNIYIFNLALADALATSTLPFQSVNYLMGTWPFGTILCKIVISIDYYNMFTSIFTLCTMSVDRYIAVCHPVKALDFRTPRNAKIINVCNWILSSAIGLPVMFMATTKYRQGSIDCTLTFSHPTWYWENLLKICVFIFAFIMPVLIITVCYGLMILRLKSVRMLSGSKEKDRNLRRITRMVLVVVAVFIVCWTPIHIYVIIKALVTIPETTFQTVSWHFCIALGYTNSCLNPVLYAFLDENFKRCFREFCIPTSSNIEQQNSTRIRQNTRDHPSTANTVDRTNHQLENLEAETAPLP

O=C(N[C@@H]1CC[C@@]2(O)[C@H]3Cc4ccc(O)c5c4[C@@]2(CCN3CC2CC2)[C@H]1O5)c1ccnc(Cl)c1 [Compound 1, 17-Cyclopropylmethyl-3,14β-dihydroxy-4,5α-epoxy-6β-{[4′-(2′-chloropyridyl)]carboxamido}morphinan]
MOR selectivity over DOR (mu opioid receptor (MOR)): over 1000 fold

C[N@+]1(CC2CC2)CC[C@]23c4c5ccc(O)c4O[C@H]2C(=O)CC[C@@]3(O)[C@H]1C5 [MNTX, methylnaltrexone]
efficiency to induce SBM [1]: ≤ 62% | patients with laxation within 4 hours after the first dose ([1]; placebo 14%): 62% | patients with laxation within 4 hours after the first dose ([1]; placebo 15%): 48%

Cc1cnccc1C(=O)N[C@@H]1CC[C@@]2(O)[C@H]3Cc4ccc(O)c5c4[C@@]2(CCN3CC2CC2)[C@H]1O5 [Compound 8, 17-Cyclopropylmethyl-3,14β-dihydroxy-4,5α-epoxy-6β-{[4′-(3′-methylpyridyl)]carboxamido}morphinan]
apparent permeability / bidirectional transport (Caco-2 cells [2]): low permeability

C=CCN1CC[C@]23c4c5ccc(O)c4O[C@H]2C(=O)CC[C@@]3(O)[C@H]1C5 [Naloxone]
systemic bioavailability [3]: ~ 2%

O=C(N[C@@H]1CC[C@@]2(O)[C@H]3Cc4ccc(O)c5c4[C@@]2(CCN3CC2CC2)[C@H]1O5)c1ccncc1 [NAP, 17-cyclopropylmethyl-3, 14β-dihydroxy-4,5α-epoxy-6β-[(4’ -pyridyl)carboxamido]morphinan]
apparent permeability (Caco-2 cells [4]): significantly low | effect of compound alone on intestinal motility [5]: intestinal motility decreased | ED50 in the GI transit assay ([6]; GI transit assay): 8.8 µg/kg | incidence of diarrhea ([6]; high doses): incidence of diarrhea associated with high doses

O=C(CNC(=O)c1ccncc1)N[C@@H]1CC[C@@]2(O)[C@H]3Cc4ccc(O)c5c4[C@@]2(CCN3CC2CC2)[C@H]1O5 [Compound 12, 17-Cyclopropylmethyl-3,14β-dihydroxy-4,5α-epoxy-6β-{2′-[(pyridine-4′′-yl)carboxamido]acetamido}morphinan]
antagonism of antinociceptive effect of morphine [7]: no apparent antagonism effect
